Experimental findings from ChEMBL document CHEMBL5614413, “Design, synthesis and biological evaluation of amphiphilic benzopyran derivatives as potent antibacterial agents against multidrug-resistant bacteria” (Eur J Med Chem, 2024) are described below.

Usually MIC stands for the smallest concentration in the dilution series that meets the test's criterion for growth inhibition. A high value points to weaker potency.

Test [1] concerns Staphylococcus aureus. Put plainly: Antibacterial activity against methicillin-resistant Staphylococcus aureus ATCC 43300 infected in sepsis mouse model assessed as reduction in bacterial load in liver at 5 mg/kg pre-infected with bacteria for 1 hrs followed by continuous compound administration at 12 hrs intervals for 2 days (reference value: 7.16 log10CFU/g). The note with it: time 2 day. Format: functional.

The next test has as its system Klebsiella pneumoniae. Put plainly: Antibacterial activity against Klebsiella pneumoniae ATCC 10031. Format: functional.
Test [2] deals with Staphylococcus aureus. Kind of test: Antibacterial activity against methicillin-resistant Staphylococcus aureus ATCC 43300 infected in sepsis mouse model assessed as reduction in number of surviving bacterial colonies in kidney at 5 mg/kg pre-infected with bacteria for 1 hrs followed by continuous compound administration at 12 hrs intervals for 2 days relative to control. Format: functional. The following applies: time 2 day.

In the next test the test system is Enterococcus faecalis. Put plainly: Antibacterial activity against vancomycin-susceptible Enterococcus faecalis ATCC 29212. Format: functional.
Another test has as its system Acinetobacter baumannii. Kind of test: Antibacterial activity against Acinetobacter baumannii ATCC 19606. Format: functional.
Test [3] has as its system Staphylococcus aureus. Put plainly: Antibacterial activity against methicillin-resistant Staphylococcus aureus ATCC 43300 infected in sepsis mouse model assessed as reduction in pathological damages in spleen at 5 mg/kg pre-infected with bacteria for 1 hrs followed by continuous compound administration at 12 hrs intervals for 2 days by H and E staining based analysis. Format: functional, organism-based. The note with it: time 2.0 day.

Test [4] concerns Staphylococcus aureus. Kind of test: Antibacterial activity against methicillin-resistant Staphylococcus aureus ATCC 43300 infected in sepsis mouse model assessed as reduction in number of surviving bacterial colonies in blood at 5 mg/kg pre-infected with bacteria for 1 hrs followed by continuous compound administration at 12 hrs intervals for 2 days relative to control. Format: functional. The following applies: time 2 day.

Test [5] has as its system Staphylococcus aureus. Kind of test: Antibacterial activity against methicillin-resistant Staphylococcus aureus ATCC 43300 infected in sepsis mouse model assessed as reduction in pathological damages in liver at 5 mg/kg pre-infected with bacteria for 1 hrs followed by continuous compound administration at 12 hrs intervals for 2 days by H and E staining based analysis. Format: functional, organism-based. The note with it: time 2.0 day.

The subject of test [6] is Staphylococcus aureus. Put plainly: Antibacterial activity against methicillin-resistant Staphylococcus aureus ATCC 43300 infected in sepsis mouse model assessed as reduction in number of surviving bacterial colonies in liver at 5 mg/kg pre-infected with bacteria for 1 hrs followed by continuous compound administration at 12 hrs intervals for 2 days relative to control. Format: functional. The following applies: time 2 day.

Test [7] deals with Staphylococcus aureus. Put plainly: Antibacterial activity against methicillin-resistant Staphylococcus aureus ATCC 43300 infected in sepsis mouse model assessed as reduction in pathological damages in kidney at 5 mg/kg pre-infected with bacteria for 1 hrs followed by continuous compound administration at 12 hrs intervals for 2 days by H and E staining based analysis. Format: functional, organism-based. The following applies: time 2.0 day.

Test [8] has as its system Staphylococcus aureus. Kind of test: Antibacterial activity against methicillin-resistant Staphylococcus aureus ATCC 43300 infected in sepsis mouse model assessed as reduction in bacterial load in spleen at 5 mg/kg pre-infected with bacteria for 1 hrs followed by continuous compound administration at 12 hrs intervals for 2 days (reference value: 7.45 log10CFU/g). Format: functional. The note with it: time 2 day.

The test system of test [9] is Staphylococcus aureus. Kind of test: Antibacterial activity against methicillin-resistant Staphylococcus aureus ATCC 43300 infected in sepsis mouse model assessed as reduction in number of surviving bacterial colonies in spleen at 5 mg/kg pre-infected with bacteria for 1 hrs followed by continuous compound administration at 12 hrs intervals for 2 days relative to control. Format: functional. The following applies: time 2 day.

The next test concerns Bacillus subtilis. Kind of test: Antibacterial activity against penicillin-susceptible Bacillus subtilis ATCC 9372. Format: functional.
Test [10] concerns Staphylococcus aureus. Put plainly: Antibacterial activity against methicillin-resistant Staphylococcus aureus ATCC 43300 infected in sepsis mouse model assessed as decrease in TNF-alpha level in blood at 5 mg/kg pre-infected with bacteria for 1 hrs followed by continuous compound administration at 12 hrs intervals for 2 days. Format: functional, organism-based. The following applies: time 2.0 day.

The subject of test [11] is Staphylococcus aureus. Kind of test: Antibacterial activity against methicillin-resistant Staphylococcus aureus ATCC 43300 infected in sepsis mouse model assessed as reduction in bacterial load in blood at 5 mg/kg pre-infected with bacteria for 1 hrs followed by continuous compound administration at 12 hrs intervals for 2 days (reference value: 3.69 log10CFU/ml). Format: functional. The note with it: time 2 day.

The next test has as its system Escherichia coli. Kind of test: Antibacterial activity against penicillin-susceptible Escherichia coli ATCC 25922. Format: functional.
Test [12] concerns Staphylococcus aureus. Kind of test: Antibacterial activity against methicillin-resistant Staphylococcus aureus ATCC 43300 infected in sepsis mouse model assessed as reduction in bacterial load in kidney at 5 mg/kg pre-infected with bacteria for 1 hrs followed by continuous compound administration at 12 hrs intervals for 2 days (reference value: 6.75 log10CFU/g). Format: functional. The following applies: time 2 day.

Test [13] deals with Staphylococcus aureus. Put plainly: Antibacterial activity against methicillin-resistant Staphylococcus aureus ATCC 43300 infected in sepsis mouse model assessed as decrease in IL-6 level in blood at 5 mg/kg pre-infected with bacteria for 1 hrs followed by continuous compound administration at 12 hrs intervals for 2 days. Format: functional, organism-based. The note with it: time 2.0 day.

In another test the test system is Pseudomonas aeruginosa. Put plainly: Antibacterial activity against penicillin-susceptible Pseudomonas aeruginosa ATCC 27853. Format: functional.

Molecules are shown by their SMILES. Converted amounts (≈) assume the structure as drawn. The source made the active and inactive calls.

On to `CN[C@H](CC(C)C)C(=O)N[C@H]1C(=O)N[C@@H](CC(N)=O)C(=O)N[C@H]2C(=O)N[C@H]3C(=O)N[C@H](C(=O)N[C@H](C(=O)O)c4cc(O)cc(O)c4-c4cc3ccc4O)[C@H](O)c3ccc(c(Cl)c3)Oc3cc2cc(c3O[C@@H]2O[C@H](CO)[C@@H](O)[C@H](O)[C@H]2O[C@H]2C[C@](C)(N)[C@H](O)[C@H](C)O2)Oc2ccc(cc2Cl)[C@H]1O` [VANCOMYCIN], for which the Activity in the test with Staphylococcus aureus [1] is recorded as 2.7 log10CFU/g; in the test on Staphylococcus aureus [2], 99.8%; in the test with Staphylococcus aureus [4], 96.5%; in the test with Staphylococcus aureus [6], 99.8%; in the test with Staphylococcus aureus [8] it was 2.33 log10CFU/g; in the test on Staphylococcus aureus [9] it was 99.6%. Further, the Activity in the test with Staphylococcus aureus [11] is reported as 1.5 log10CFU/ml; in the test on Staphylococcus aureus [12], 2.73 log10CFU/g. Besides, the MIC is 128 µg/mL (≈ 88.3 µM) against Klebsiella pneumoniae; 2 µg/mL (≈ 1.38 µM) against Enterococcus faecalis; 16 µg/mL (≈ 11 µM) against Acinetobacter baumannii; 0.5 µg/mL (≈ 0.345 µM) in the test with Bacillus subtilis; 128 µg/mL (≈ 88.3 µM) with Escherichia coli; over 128 µg/mL with Pseudomonas aeruginosa. For the same molecule, the result in the test on Staphylococcus aureus [3], with Staphylococcus aureus [5], in the test with Staphylococcus aureus [7], in the test with Staphylococcus aureus [10] and with Staphylococcus aureus [13] was Active.
